Activity and fold change (FC) data for 17 molecules are collected here from ChEMBL document CHEMBL5390278, “PPARα/γ-Targeting Amorfrutin Phytocannabinoids from Aerial Parts of Glycyrrhiza foetida” (J Nat Prod, 2023).

The test system of one series is COS-7. Nature of the series: Cytotoxicity against African green monkey COS-7 cells assessed as cell viability at 1 to 30 uM incubated for 24 hrs by MTT assay. To be noted: chlorocebus aethiops, cos-7, 24 h, dose 1-30 µM. It is filed as toxicity, cell-based.
Series [1] addresses T1, Peroxisome proliferator-activated receptor alpha (Homo sapiens) (UniProt Q07869).
T1 sequence (whole entry): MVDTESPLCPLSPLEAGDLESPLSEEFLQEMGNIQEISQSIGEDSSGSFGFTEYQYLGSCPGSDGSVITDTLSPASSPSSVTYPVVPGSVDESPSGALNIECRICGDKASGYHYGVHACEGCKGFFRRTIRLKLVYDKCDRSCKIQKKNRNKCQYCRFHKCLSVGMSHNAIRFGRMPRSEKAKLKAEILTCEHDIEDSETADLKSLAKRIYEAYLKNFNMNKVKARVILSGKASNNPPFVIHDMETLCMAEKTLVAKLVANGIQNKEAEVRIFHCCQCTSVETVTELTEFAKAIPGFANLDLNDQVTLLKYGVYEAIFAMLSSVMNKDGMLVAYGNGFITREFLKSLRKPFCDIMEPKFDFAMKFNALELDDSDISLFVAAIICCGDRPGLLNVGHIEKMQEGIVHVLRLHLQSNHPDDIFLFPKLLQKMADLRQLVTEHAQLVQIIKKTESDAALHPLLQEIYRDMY
Kind of series: Agonist activity at human PPAR alpha transfected in African green monkey COS-7 cells co-transfected with CMX-Gal4 fused hPPARalpha/TK-MH100x4-Luc/renilla luciferase assessed as fold increase in luciferase activity at 10 uM incubated for 24 hrs by Dual-Glo luciferase assay. The settings on record: filed as agonist. It is filed as cell-based.

The target in series [2] is T2, Peroxisome proliferator-activated receptor gamma (Homo sapiens) (UniProt P37231).
T2 sequence (whole entry): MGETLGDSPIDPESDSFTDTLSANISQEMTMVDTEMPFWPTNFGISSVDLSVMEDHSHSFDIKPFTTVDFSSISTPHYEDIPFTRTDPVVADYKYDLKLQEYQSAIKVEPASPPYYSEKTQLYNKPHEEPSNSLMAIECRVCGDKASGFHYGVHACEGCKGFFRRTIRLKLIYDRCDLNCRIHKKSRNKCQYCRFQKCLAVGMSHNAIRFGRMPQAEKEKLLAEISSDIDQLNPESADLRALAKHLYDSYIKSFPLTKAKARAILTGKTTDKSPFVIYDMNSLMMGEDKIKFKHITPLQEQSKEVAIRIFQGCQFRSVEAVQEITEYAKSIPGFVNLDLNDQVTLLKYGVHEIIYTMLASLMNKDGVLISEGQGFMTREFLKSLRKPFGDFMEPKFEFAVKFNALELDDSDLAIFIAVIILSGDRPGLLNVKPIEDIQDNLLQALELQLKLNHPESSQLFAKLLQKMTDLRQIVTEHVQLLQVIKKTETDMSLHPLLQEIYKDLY
Kind of series: Agonist activity at human PPAR gamma transfected in African green monkey COS-7 cells co-transfected with CMX-Gal4 fused hPPARgamma/TK-MH100x4-Luc/renilla luciferase at 10 uM incubated for 24 hrs by Dual-Glo luciferase assay. The class given is cell-based. To be noted: filed as agonist.

For series [3], the target named is T2, Peroxisome proliferator-activated receptor gamma (Homo sapiens). Kind of series: Agonist activity at human PPAR gamma transfected in African green monkey COS-7 cells co-transfected with CMX-Gal4 fused hPPARgamma/TK-MH100x4-Luc/renilla luciferase assessed as fold increase in luciferase activity at 10 uM incubated for 24 hrs by Dual-Glo luciferase assay. It is filed as cell-based.

The source made the active and inactive calls. The calls are words filed in the database; no cut-off is given here. A value given as a limit tells only on which side of the number the result lay.

As for `COc1cc(CCc2ccccc2)c(C(=O)O)c2c1[C@H](OC)[C@@H](C(C)(C)O)O2`, the Activity entry in the series on COS-7 is recorded as “Toxic”.

On to `COc1cc(CCc2ccccc2)cc(O)c1CC=C(C)C`, for which, in the series with COS-7, the Activity entry was “Toxic”.

Take `COc1cc(CCc2ccccc2)cc(OC)c1CC=C(C)C`: in the series on COS-7, the Activity result is “Toxic”.

As to `C=C(C)C(O)Cc1c(OC)cc(CCCCC)c(C(=O)O)c1O` (racemic), in series [1], the fold change (FC) came to 5. Further, the outcome in series [2] was Active.

With `CCCCCc1cc(OC)c(CC=C(C)C)c(O)c1C(=O)O`, the Activity entry with COS-7 is “Toxic”.

As to `C=C(C)C(Cc1c(OC)cc(CCc2ccccc2)c(C(=O)O)c1O)OO` (racemic), in series [1], the fold change (FC) turned out to be 5. Also, the outcome in series [2] was Active.

As for `C=C(C)C(O)Cc1c(OC)cc(CCc2ccccc2)c(C(=O)O)c1O` (racemic), the fold change (FC) in series [1] was determined as 5. Besides, the outcome in series [2] was Active.

Consider `CCCCCc1cc(OC)c2c(c1C(=O)O)OC(C(C)(C)O)C2` (racemic), for which the fold change (FC) in series [1] turned out to be 5.

Consider `CCCCCc1cc(O)c(CC=C(C)C)c(O)c1CC=C(C)C`, for which the fold change (FC) in series [1] stood at 5.

As for `COc1cc(CCc2ccccc2)c(C(=O)O)c2occc12`, in series [1], the fold change (FC) came to 5.

In the case of `COc1c(CC=C(C)C)c(O)c(C(=O)O)c(CCc2ccccc2)c1CC=C(C)C`, in series [2], the outcome was Active.

For the molecule `CC(C)=CCc1c(O)cc(CCc2ccccc2)cc1O`, the Activity result in the series with COS-7 is given as “Toxic”.

Turning to `COc1cc(/C=C/c2ccccc2)cc(O)c1CC=C(C)C`, the Activity result with COS-7 is on record as “Toxic”.

For `CC(C)=CCc1c(O)cc(CCc2ccccc2)c(CC=C(C)C)c1O`, the Activity entry in the series on COS-7 is reported as “Toxic”.

Consider `COc1cc(C#Cc2ccccc2)cc(OC)c1CC=C(C)C`, for which, in the series with COS-7, the Activity result is “Toxic”.

Regarding `COc1cc(CCc2ccccc2)c(C(=O)O)c(O)c1CC=C(C)C`, the values for the fold change (FC) in series [1] and in series [3] were 5 and above 20, respectively. Moreover, the outcome in series [2] was Active.

Regarding `COc1cc(/C=C/c2ccccc2)cc(OC)c1CC=C(C)C`, in the series on COS-7, the Activity entry was “Toxic”.
